Test results: patent US20080269323A1, “USE OF 4-(NITROOXY)-BUTYL-(S)-2-(6-METHOXY-2-NAPHTHYL)-PROPANOATE FOR TREATING PAIN AND INFLAMMATION” (NICOX S.A., priority 2007, published 2008)

Columns and labels:
[1] = Urine flow rate during water-load; type: in vivo, rat; settings: water-load (90 min) compared to baseline; rats, oral, two weeks
Experimental: After obtaining a set of baseline images, hypotonic glucose-saline (0.25% NaCl, 0.5% glucose) at 1.5 ml/100 g body weight/hr was infused intravenously via the femoral catheter for 2 hours to induce the water-diuresis.

[2] = test system: PGE2; assay: Urinary PGE2 production levels; type: in vivo, rat; settings: rats, oral, two weeks; naproxcinod 14.5 mg/kg, naproxen 10 mg/kg

Row | SMILES | Increase in urine flow during water-load (in words) [1] | Urinary PGE2 production levels (in words) [2]
1 | COc1ccc2cc([C@H](C)C(=O)O)ccc2c1 [Naproxen, naproxen] | substantially less increase | reduced
2 | COc1ccc2cc([C@H](C)C(=O)OCCCCO[N+](=O)[O-])ccc2c1 [Naproxcinod, 4-(Nitrooxy)-butyl-(S)-2-(6-methoxy-2-naphthyl)-propanoate] | substantially less increase | reduced
